Experimental data from ChEMBL document CHEMBL1201862, “PubChem BioAssay data set” (2004).
Activity calls are given as the source filed them.

How the values were obtained:
[1] = biological target: Fructose-bisphosphate aldolase (Mycobacterium tuberculosis, UniProt P9WQA3); assay: Fluorescence-based biochemical high throughput dose response assay for inhibitors of the fructose-bisphosphate aldolase (FBA) of M. tuberculosis.; type: functional
[2] = viability loss in HepG2 hepatoma cells – cell-based, cherry-picks, set 5, cytotoxicity control, dose response (AID 1053118); type: functional
[3] = test system: Streptococcus sp. 'group A'; assay: Streptococcus pyogenes SK(-)GAS viability under kanamycin – luminescence, BacTiterGlo, confirmation, counter-screen for streptokinase expression inhibitor project, dose response (AID 1900); type: functional, organism-based
Streptokinase A = biological target: T1, Streptokinase A (Streptococcus pyogenes serotype M1, UniProt P10520); assay: viability-normalized secreted streptokinase activity reduction – plasminogen activation absorbance, OD405, dose response (AID 1914); type: functional, Streptococcus pyogenes M1 GAS;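 also: secreted streptokinase activity via plasminogen activation per viability signal from cell pellet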
T1 sequence (P10520 whole entry): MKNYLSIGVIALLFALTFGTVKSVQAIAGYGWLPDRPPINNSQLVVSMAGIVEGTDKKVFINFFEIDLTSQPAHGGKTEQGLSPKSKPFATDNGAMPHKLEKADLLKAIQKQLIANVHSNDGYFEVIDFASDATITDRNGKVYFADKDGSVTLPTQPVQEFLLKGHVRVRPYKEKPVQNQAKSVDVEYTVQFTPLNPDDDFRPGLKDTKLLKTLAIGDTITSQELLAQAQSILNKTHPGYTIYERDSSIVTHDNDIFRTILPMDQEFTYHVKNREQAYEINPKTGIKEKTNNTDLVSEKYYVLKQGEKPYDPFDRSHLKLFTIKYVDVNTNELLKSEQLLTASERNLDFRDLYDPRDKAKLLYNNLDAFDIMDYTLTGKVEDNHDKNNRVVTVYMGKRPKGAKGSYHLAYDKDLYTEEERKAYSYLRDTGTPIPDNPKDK

Streptococcus = assay: GAS UMAA2166 growth inhibition – luminescence, BacTiterGlo, counter-screen for streptokinase expression inhibitor project, dose response (AID 1915); type: functional, organism-based;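 also: potency for reduction of bacterial viability or growth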
Exodeoxyribonuclease V = biological target: T2, Exodeoxyribonuclease V (Escherichia coli (strain K12), UniProt P04993+P07648+P08394); assay: RecBCD inhibition via phage-restricted bacterial growth – absorbance, V66 E. coli, mutant T4 phage, counter-screen for AddAB inhibitor project, dose response (AID 492957); type: functional, cell-based, Escherichia coli str. K-12 substr. MG1655
T2 sequence (P04993 whole entry): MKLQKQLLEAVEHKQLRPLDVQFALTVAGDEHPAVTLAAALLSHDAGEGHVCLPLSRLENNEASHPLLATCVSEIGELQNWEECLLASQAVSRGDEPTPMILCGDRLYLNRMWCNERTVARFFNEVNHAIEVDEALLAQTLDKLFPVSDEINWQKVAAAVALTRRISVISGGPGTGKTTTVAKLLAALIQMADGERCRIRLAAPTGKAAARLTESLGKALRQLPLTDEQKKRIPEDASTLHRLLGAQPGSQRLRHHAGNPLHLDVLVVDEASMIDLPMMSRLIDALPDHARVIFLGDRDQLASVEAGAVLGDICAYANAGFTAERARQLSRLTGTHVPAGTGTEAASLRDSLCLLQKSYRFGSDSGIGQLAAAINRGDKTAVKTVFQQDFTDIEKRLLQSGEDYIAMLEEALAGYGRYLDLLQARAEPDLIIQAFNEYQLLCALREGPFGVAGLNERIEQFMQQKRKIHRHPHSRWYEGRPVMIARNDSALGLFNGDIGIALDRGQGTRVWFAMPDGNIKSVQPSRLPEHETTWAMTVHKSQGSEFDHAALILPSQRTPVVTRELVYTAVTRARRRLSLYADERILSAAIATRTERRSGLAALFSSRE
T2 sequence (P07648 whole entry): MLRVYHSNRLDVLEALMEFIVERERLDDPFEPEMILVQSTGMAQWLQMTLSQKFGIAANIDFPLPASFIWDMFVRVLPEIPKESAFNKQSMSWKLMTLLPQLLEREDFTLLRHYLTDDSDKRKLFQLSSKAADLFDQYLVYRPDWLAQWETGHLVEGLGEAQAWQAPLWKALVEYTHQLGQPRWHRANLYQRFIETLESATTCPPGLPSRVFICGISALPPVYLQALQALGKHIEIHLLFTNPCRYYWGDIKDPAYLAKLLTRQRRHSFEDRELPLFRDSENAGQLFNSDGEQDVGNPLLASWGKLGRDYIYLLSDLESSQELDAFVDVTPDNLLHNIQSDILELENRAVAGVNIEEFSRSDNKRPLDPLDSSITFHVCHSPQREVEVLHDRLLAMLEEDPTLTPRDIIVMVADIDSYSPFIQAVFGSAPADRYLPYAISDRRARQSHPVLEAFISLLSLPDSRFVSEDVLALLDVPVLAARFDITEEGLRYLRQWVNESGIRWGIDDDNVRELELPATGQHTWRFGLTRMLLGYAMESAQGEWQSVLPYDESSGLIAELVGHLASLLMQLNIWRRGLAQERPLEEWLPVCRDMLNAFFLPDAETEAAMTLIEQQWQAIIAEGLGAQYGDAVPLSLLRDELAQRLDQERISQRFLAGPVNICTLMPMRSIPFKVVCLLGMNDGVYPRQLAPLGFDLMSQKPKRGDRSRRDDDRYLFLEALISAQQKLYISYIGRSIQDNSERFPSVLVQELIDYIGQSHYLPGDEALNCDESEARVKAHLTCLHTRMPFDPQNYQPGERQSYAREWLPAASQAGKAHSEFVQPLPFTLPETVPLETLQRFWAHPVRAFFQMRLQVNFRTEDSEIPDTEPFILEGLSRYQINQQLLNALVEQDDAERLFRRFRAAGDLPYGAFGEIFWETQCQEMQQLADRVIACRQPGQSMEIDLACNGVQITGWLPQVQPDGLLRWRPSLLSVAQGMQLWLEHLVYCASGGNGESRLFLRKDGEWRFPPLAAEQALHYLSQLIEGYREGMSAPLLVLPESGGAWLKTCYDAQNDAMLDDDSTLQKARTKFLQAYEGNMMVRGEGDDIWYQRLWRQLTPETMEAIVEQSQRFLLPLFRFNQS
T2 sequence (P08394 whole entry): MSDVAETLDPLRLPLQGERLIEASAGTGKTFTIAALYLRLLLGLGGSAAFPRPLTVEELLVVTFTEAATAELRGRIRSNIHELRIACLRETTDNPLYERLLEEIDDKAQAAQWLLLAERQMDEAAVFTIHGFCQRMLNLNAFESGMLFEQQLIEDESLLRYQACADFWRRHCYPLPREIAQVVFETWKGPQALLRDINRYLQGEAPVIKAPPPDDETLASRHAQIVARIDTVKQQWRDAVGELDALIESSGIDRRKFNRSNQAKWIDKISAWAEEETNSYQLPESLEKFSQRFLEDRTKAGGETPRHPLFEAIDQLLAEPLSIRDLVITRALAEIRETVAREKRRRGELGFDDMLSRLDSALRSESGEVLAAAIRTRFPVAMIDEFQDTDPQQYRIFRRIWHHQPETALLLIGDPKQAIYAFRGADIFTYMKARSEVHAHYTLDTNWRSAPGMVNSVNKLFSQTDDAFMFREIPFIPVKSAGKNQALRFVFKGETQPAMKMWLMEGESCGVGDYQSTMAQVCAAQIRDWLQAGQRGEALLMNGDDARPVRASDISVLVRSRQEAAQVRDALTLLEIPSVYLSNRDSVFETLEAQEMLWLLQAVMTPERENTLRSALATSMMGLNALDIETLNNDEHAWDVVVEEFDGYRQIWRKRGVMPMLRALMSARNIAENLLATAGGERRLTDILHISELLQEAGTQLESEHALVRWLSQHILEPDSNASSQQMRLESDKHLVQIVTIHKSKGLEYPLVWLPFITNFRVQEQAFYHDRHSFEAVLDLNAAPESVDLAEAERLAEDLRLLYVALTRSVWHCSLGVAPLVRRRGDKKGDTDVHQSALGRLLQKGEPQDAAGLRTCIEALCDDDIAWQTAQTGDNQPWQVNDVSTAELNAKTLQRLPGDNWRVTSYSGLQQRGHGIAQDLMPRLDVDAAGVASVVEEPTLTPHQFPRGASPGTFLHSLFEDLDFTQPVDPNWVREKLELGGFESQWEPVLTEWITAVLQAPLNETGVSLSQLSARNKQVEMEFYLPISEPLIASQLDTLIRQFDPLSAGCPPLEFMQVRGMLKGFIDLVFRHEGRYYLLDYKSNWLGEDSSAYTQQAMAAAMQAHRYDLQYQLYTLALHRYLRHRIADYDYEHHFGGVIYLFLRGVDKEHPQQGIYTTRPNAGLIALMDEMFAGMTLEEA

[4] = Counterscreen for AddAB inhibitors: absorbance-based bacterial cell-based high throughput dose response assay for inhibitors of bacterial viability. [Related pubchem assays (depositor defined):AID435030, AID449728, AID449731, AID488942, AID488955, AID488956]; type: functional
[5] = biological target: T3, Probable nicotinate-nucleotide adenylyltransferase (Staphylococcus aureus (strain N315), UniProt P65502); type: functional, Staphylococcus aureus subsp. aureus N315;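 as to IC50 Mean: confirmatory dose-response retesting of NadD inhibitor hits first found in an ultra-high-throughput screen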
T3 sequence (P65502 whole entry): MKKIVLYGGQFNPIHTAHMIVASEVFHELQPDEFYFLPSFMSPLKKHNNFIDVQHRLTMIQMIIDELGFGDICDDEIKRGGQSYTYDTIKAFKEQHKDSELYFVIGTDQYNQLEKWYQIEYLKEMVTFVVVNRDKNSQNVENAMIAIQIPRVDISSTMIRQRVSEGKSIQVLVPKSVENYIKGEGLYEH

[6] = biological target: T3, Probable nicotinate-nucleotide adenylyltransferase; type: functional, Staphylococcus aureus subsp. aureus N315; settings: read-out: IC50_Mean
[7] = TNFa-induced NF-kB reporter signal decrease – HEK293 LMP1 reporter cells, dry powder, set 2, selectivity assay for EBV LMP1 NF-kB inhibitor project, dose response (AID 624369); type: functional
[8] = cytotoxicity in HEK293 background cells – cell-based, dry powder, set 2, counter-screen for EBV LMP1 inhibitor project, dose response (AID 624374); type: functional
HeLa = assay: viability loss in HeLa cells – cell-based, ATP luminescence, cherry-pick samples, cytotoxicity control, dose response (AID 687004); type: functional; settings: Homo sapiens
[9] = biological target: T4, Beta-2 adrenergic receptor (Homo sapiens, UniProt P07550); assay: ADRB2 activation measured by internalization – cell-based, FAP fluorogen, flow cytometry, cherry pick 1, dose response (AID 588763); type: functional
T4 sequence (P07550 whole entry): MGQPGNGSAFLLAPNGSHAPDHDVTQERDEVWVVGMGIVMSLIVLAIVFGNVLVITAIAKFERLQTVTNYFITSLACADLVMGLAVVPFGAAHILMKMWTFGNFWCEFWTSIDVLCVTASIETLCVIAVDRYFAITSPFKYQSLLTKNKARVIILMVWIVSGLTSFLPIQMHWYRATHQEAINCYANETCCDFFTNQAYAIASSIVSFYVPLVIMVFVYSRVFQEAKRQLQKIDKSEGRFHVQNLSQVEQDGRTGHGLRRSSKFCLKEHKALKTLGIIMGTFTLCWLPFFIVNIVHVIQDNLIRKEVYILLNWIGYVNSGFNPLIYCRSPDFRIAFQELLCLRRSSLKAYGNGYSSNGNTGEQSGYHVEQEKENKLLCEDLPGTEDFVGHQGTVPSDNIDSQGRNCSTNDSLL

[10] = biological target: T4, Beta-2 adrenergic receptor; assay: Dose response for HTS for Beta-2AR agonists via FAP method from Powderset3.; type: functional
Protein S100-A4 = Protein S100-A4 (Homo sapiens, UniProt P26447); assay: human S100A4 peptide interaction inhibition curves – biochemical, fluorescence polarization, cherry-picked hits, dose response (AID 687001); type: functional
Protein S100-A4, sequence (P26447 whole entry): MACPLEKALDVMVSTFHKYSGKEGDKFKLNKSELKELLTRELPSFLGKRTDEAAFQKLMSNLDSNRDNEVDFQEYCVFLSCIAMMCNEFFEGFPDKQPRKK

Nonstructural protein 1 = Nonstructural protein 1 (Influenza A virus, UniProt Q194T2); type: functional, Influenza A virus (A/California/07/2009(H1N1))
Nonstructural protein 1, sequence (Q194T2 whole entry): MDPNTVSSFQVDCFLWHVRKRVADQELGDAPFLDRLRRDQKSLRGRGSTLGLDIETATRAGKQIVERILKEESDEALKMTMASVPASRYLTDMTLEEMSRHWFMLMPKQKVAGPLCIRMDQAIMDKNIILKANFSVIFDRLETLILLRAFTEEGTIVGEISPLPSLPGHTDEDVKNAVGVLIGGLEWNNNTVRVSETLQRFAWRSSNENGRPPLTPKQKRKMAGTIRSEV

[11] = viability loss in HeLa cells – cytotoxicity control for MgcRacGAP inhibitor project, dose response (AID 624300); type: functional
[12] = biological target: T5, Rac GTPase-activating protein 1 (Homo sapiens, UniProt Q9H0H5); assay: blockers of MgcRacGAP-driven Rac1 GTP hydrolysis – biochemical, ADP Hunter fluorescence, primary and confirmatory, confirmation (AID 624330); type: functional
T5 sequence (Q9H0H5 whole entry): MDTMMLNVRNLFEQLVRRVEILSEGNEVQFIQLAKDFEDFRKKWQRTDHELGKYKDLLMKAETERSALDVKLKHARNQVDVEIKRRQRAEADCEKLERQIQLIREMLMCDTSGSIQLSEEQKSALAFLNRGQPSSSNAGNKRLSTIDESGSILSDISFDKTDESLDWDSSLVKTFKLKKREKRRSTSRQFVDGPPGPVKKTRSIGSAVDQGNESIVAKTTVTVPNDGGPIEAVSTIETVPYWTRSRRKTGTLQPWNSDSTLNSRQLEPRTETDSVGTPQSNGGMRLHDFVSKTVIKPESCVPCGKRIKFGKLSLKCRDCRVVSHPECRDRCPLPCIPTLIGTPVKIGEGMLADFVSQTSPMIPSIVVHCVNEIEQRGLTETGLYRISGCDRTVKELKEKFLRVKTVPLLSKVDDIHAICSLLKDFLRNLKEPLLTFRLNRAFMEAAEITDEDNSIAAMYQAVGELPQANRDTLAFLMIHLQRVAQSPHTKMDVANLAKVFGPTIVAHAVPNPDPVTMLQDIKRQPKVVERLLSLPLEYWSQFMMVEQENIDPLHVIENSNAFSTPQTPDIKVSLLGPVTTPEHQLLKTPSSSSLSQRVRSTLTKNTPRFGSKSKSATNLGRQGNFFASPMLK

Albumin = Albumin (Bos taurus, UniProt P02769); assay: Counterscreen for inhibitors of T-cell receptor (TCR)-CD3 interaction: Fluorescence-based biochemical high throughput dose response assay to identify inhibitors of T-cell receptor (TCR)-CD3 interaction using a TAMRA-labeled BSA probe.; type: functional
Albumin, sequence (P02769 whole entry): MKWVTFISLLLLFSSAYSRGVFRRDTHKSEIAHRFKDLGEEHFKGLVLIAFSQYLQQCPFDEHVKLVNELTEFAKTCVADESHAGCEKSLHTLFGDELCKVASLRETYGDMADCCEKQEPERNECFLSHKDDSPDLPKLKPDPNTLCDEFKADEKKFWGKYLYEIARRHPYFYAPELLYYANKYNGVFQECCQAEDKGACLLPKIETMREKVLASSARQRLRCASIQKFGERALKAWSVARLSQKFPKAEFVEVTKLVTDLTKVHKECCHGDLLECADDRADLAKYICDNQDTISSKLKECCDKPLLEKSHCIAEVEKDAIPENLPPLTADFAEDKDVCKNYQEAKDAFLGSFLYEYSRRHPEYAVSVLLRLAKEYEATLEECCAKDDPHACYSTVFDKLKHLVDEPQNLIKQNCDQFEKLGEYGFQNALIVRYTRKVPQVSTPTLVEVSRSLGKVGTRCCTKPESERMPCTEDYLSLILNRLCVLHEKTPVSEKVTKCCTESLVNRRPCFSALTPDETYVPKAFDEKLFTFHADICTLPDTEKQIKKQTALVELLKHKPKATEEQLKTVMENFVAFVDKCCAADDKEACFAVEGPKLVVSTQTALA

Protein Wnt-3a = Protein Wnt-3a (Mus musculus, UniProt P27467); assay: SAR analysis of small molecule antagonists of Gli-SUFU in a Wnt3a luminescent reporter assay.; type: functional
Protein Wnt-3a, sequence (P27467 whole entry): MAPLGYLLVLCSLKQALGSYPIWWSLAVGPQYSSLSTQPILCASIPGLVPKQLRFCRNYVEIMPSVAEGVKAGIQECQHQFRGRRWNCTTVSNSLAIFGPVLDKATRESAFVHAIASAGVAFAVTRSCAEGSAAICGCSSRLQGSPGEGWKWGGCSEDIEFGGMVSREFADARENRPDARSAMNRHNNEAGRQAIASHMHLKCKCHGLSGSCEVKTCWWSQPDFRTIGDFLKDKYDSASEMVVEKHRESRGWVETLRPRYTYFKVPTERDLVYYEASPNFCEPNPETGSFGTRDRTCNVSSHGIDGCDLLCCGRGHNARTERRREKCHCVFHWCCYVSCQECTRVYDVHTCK

Fructose-bisphosphate aldolase, sequence (P9WQA3 whole entry): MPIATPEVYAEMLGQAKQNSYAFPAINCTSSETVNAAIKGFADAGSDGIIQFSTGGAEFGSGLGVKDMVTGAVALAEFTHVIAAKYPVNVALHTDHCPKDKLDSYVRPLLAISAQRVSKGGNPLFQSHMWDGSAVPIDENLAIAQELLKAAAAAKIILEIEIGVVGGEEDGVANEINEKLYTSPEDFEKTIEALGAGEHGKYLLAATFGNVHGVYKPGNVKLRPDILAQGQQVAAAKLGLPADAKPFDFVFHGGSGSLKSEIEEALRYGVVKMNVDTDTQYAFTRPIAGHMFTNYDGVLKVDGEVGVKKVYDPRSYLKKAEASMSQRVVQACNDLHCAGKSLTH

SMILES: COc1ccc2nc(NCCCNC(=O)c3cc(OC)c(OC)c(OC)c3)c(C#N)cc2c1
- IC50 [1]: 1.78 µM (active)

SMILES: CO[C@H]1CN(C)C(=O)c2ccc(NC(=O)Nc3ccc(Cl)c(Cl)c3)cc2OC[C@H](C)NC[C@H]1C
- AC50 [2]: 13.5 µM (active)

SMILES: Cc1c(C(=O)NNC(=O)c2ccccc2O)oc2ccc(Br)cc12
- EC50 [3]: 8.43 µM (active)
- EC50 (Streptokinase A): > 150 µM (not active)
- EC50 (Streptococcus): 8.5 µM (active)
- IC50 (Exodeoxyribonuclease V): > 119 µM (inactive)
- IC50 [4]: > 119 µM (inactive)
- IC50 [5]: 15.3 µM (active)
- IC50 [6]: 45.8 µM (active)

SMILES: COc1cccc(C#Cc2ccc([C@@H]3[C@@H](C#N)N(C(=O)c4ccccn4)[C@@H]3CO)cc2)c1
- AbsAC35 [7]: 84.96 µM
- AbsAC35 [8]: 328.8 µM

SMILES: COc1cccc(S(=O)(=O)N2C[C@@H](O)COC[C@H]3O[C@H](CC(=O)Nc4ccccc4)CC[C@@H]32)c1
- AC50 (HeLa): > 52 µM (inactive)

SMILES: Cc1ccc(OCc2cc(C(=O)N(C)Cc3cnn(-c4ccccc4C)c3)no2)cn1
- EC50 [9]: 0.305 µM (active)
- EC50 [10]: 0.0555 µM (active)

SMILES: CSCc1cc(C(=O)NC2CC2)c(N)s1
- AC50 (Protein S100-A4): 17.5 µM (active)

SMILES: CN(C)c1ccc(C=c2c3ccccc3n3c2cc(-c2ccc(Cl)cc2)[n+]3C)cc1
- IC50 (Nonstructural protein 1): 5.85 µM (active)
- CC50 [11]: 18.9 µM (active)
- IC50 [12]: 44.9 µM (active)

SMILES: O=C(NNC(=O)C1CCN(S(=O)(=O)c2ccccc2C(F)(F)F)CC1)c1ccccc1O
- IC50 (Exodeoxyribonuclease V): > 119 µM (inactive)
- IC50 [4]: > 119 µM (inactive)
- IC50 (Albumin): > 94.1 µM (inactive)

SMILES: O=C(Nc1cc(N2CCCCC2)ncn1)c1ccco1
- IC50 (Protein Wnt-3a): > 21.8 µM (inactive)
